Several values for one entry are separate records, joined by “and”; a condition that tells them apart may be missing. Equal entries are not always repeated. Entries after “also recorded” stand apart in the source; their conditions may differ. Where two headings read alike, the source gives them in different places.
Tests used:
[1] = biological target: T1, D2R (Homo sapiens, UniProt P14416); test: cell-based; conditions: for EC50: nanoBRET; for Emax: HEK-293T
Target sequence in this assay (P14416 whole entry): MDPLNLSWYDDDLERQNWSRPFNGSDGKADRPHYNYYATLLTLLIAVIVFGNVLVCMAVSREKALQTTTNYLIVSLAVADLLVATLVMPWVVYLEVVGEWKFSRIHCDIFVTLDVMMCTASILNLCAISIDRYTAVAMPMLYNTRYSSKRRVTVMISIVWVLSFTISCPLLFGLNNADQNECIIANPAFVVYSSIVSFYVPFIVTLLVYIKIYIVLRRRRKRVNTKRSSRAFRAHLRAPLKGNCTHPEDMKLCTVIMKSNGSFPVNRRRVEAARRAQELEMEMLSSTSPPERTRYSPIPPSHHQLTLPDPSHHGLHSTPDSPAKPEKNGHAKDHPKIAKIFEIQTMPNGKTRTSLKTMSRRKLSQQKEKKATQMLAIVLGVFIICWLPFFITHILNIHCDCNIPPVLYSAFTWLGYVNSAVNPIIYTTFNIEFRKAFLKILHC

[2] = biological target: T1, D2R
Target sequence in this assay (P14416 whole entry): as above

[3] = test system: human islets; test: Insulin secretion from human islets; format: cell-based; conditions: 10 pM and 100 pM, versus vehicle
[4] = biological target: T1, D2R; test: Radioligand competition binding, [3H]-N-methylspiperone, HEK-293 membranes
Target sequence in this assay (P14416 whole entry): as above

[5] = biological target: T1, D2R; test: cell-based
Target sequence in this assay (P14416 whole entry): as above
Target sequence in this assay (P32121 whole entry partner): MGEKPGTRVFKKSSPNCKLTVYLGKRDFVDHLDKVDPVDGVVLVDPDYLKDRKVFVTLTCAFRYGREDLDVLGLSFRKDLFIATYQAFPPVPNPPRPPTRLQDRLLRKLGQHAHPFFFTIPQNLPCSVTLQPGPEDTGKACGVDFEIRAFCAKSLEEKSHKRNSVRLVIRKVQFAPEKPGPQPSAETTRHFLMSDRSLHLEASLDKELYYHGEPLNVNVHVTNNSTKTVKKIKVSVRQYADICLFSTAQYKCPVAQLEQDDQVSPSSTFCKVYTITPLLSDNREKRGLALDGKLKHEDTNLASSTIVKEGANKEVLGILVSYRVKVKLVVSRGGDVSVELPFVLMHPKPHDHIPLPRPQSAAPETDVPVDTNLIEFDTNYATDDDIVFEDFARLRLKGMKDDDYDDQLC

[6] = test system: INS-1E cells; test: Glucose-stimulated insulin secretion; format: cell-based, rat
[7] = test system: α2A-AR KO INS-1E-derived cell line; test: GSIS in α2A-AR knockout INS-1E-derived cell line; format: cell-based, rat
[8] = biological target: T2, α2A-AR (Rattus norvegicus, UniProt P22909); test: cell-based; conditions: HEK-293T
T2 sequence (P22909 1-465): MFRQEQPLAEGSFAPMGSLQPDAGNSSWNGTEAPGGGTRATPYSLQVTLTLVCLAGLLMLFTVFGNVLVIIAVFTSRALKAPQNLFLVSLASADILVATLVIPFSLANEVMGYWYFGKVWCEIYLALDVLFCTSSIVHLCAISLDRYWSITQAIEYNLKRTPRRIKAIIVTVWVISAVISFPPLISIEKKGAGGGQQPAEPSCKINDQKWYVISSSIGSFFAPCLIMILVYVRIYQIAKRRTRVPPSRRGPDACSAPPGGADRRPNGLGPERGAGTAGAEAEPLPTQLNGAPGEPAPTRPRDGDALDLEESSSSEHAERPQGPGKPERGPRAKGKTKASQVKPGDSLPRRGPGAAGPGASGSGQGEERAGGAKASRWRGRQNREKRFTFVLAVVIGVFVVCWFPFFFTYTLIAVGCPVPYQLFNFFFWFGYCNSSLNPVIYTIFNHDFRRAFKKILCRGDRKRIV

[9] = biological target: T2, α2A-AR; format: cell-based; conditions: nanoBRET
[10] = test system: mouse islets; test: Glucagon secretion from mouse islets; format: cell-based; conditions: 25 mM glucose, 1 h
[11] = test system: mouse pancreatic islets; test: Glucose-stimulated insulin secretion; format: cell-based; conditions: for IC50: Mus musculus, Pancreatic islet, 1.5 h
[12] = test system: human islets; test: Glucagon secretion from human islets; format: cell-based; conditions: 25 mM glucose, 1 h
[13] = test system: α2A-AR; test: α2A-AR internalization; format: cell-based; conditions: data not shown
[14] = test system: INS-1E cells; test: HTRF cAMP assay in INS-1E cells; format: cell-based, rat; conditions: for Emax, inhibition of cAMP production: normalized to DA's efficacy in parental INS-1E
[15] = biological target: T2, α2A-AR; format: cell-based; conditions: nanoBRET; remark: listed apart in the source
[16] = test system: β1-AR; conditions: ref Millan et al., 2002; cited from earlier work
[17] = biological target: T1, D2R; conditions: nanoBRET
Target sequence in this assay (P14416 whole entry): as the sequence (P14416 whole entry) above

[18] = test system: α2A-AR KO INS-1E-derived cell line; test: HTRF cAMP assay in α2A-AR KO INS-1E-derived cells; format: cell-based, rat
[19] = biological target: T1, D2R; conditions: cited from earlier work
Target sequence in this assay (P14416 whole entry): as above
Target sequence in this assay (P32121 whole entry partner): as the sequence (P32121 whole entry partner) above

[20] = EC50, Gαi2 recruitment to D2R, Gαi2
[21] = EC50, Gαi3 recruitment to D2R, Gαi3
[22] = EC50, GαoA recruitment to D2R, GαoA
[23] = percentage of recruitment relative to DA

## CC(C)C[C@H]1C(=O)N2CCC[C@H]2[C@]2(O)O[C@](NC(=O)[C@@H]3C=C4c5cccc6[nH]c(Br)c(c56)C[C@H]4N(C)C3)(C(C)C)C(=O)N12 [Bromocriptine]
[1]; EC50, Gαi1 recruitment to D2R, Gαi1
  EC50: 104 nM
[1]; [20]
  EC50: 21.6 nM
[1]; [21]
  EC50: 84.3 nM
[1]; [22]
  EC50: 0.0767 nM and 0.08 nM
[1]; EC50, Gαz recruitment to D2R, Gαz
  EC50: 4.3 nM
[1]; read-out: Emax, Gαi2 recruitment to D2R, percentage of recruitment relative to DA
  Emax: 89.3%
[1]; read-out: Emax, GαoA recruitment to D2R, percentage of recruitment relative to DA
  Emax: 109%
[1]; read-out: Emax, GαoB recruitment to D2R, percentage of recruitment relative to DA
  Emax: 96.1%
[1]; read-out: Emax, Gαz recruitment to D2R, percentage of recruitment relative to DA
  Emax: 66.5%
[1]; pEC50, GαoA recruitment to D2R, GαoA
  EC50: 0.0759 nM
[1]; pEC50, GαoB recruitment to D2R, GαoB
  EC50: 0.269 nM
[2]; EC50 ratio versus DA
  higher potency than DA, Gαi1 recruitment to D2R: 4.5 fold
[2]; EC50 ratio versus NE
  higher potency than NE, Gαi1 recruitment to D2R: 47.2 fold
[2]; [23]
  Emax, Gαi1 recruitment to D2R: 60.03 [46.83–73.23] %
  Emax, GαoA recruitment to D2R: 109.13 [71.26–147.01] %
  Emax, GαoB recruitment to D2R: 96.05 [65.07–127.03] %
  Emax, Gαz recruitment to D2R: 66.51 [20.68–112.34] %
[3]
  effect on insulin secretion: not significantly altered; also recorded: did not significantly alter
[4]
  Ki: 43.2 nM
[5]
  EC50: 286 nM
[5]; read-out: Emax, β-arrestin2 recruitment to D2R
  Emax: 60.9%
[6]; co-treatment with sulpiride (100 nM)
  decrease of efficacy at reducing GSIS versus bromocriptine alone: 66.7%
[6]; co-treatment with yohimbine (100 nM)
  reduction of efficacy of GSIS inhibition versus bromocriptine alone: 66.5%
[6]; read-out: IC50, inhibition of GSIS, INS-1E, 20 mM glucose, 90 min
  IC50: 14 nM
[7]; read-out: IC50, inhibition of GSIS, α2A-AR KO INS-1E-derived cells
  IC50: 6.67 nM
[7]; α2A-AR KO
  reduction of efficacy of GSIS inhibition versus parental INS-1E cells: 80.6%
[8]; read-out: Emax, Gαi1 recruitment to α2A-AR
  Emax: 15.4%
[8]; read-out: Emax, Gαi2 recruitment to α2A-AR
  Emax: 43.8%
[8]; read-out: Emax, Gαi3 recruitment to α2A-AR
  Emax: 12.7%
[8]; read-out: Emax, GαoA recruitment to α2A-AR
  Emax: 43%
[8]; read-out: Emax, GαoB recruitment to α2A-AR
  Emax: 40.3%
[8]; read-out: Emax, Gαz recruitment to α2A-AR
  Emax: 21.2%
[9]
  β-arrestin2 recruitment to α2A-AR: does not result in measurable recruitment; also recorded: Neither bromocriptine nor DA stimulation of α2A-AR caused significant β-arrestin2 receptor recruitment
[10]; 10 pM
  decrease in secreted glucagon: 26.7%
[10]; 100 pM
  decrease in secreted glucagon: 29.7%
[11]; read-out: IC50, inhibition of GSIS
  IC50: 15.8 nM
[11]; read-out: pIC50, inhibition of GSIS (converted)
  IC50: 15.8 nM
[11]; mouse islets, picomolar concentrations
  effect on insulin secretion: insufficient to modify insulin secretion
[12]; 10 pM
  decrease in secreted glucagon: 30.8%
[12]; 100 pM
  decrease in secreted glucagon: 36.7%
[13]
  internalization of α2A-AR following stimulation: no detectable internalization
[14]
  Emax, inhibition of cAMP production: 35.10 [33.09–38.47] % DA
[14]; listed as bromocriptine
  Emax, inhibition of cAMP production: 35.1 % DA
[14]; read-out: IC50, inhibition of cAMP production, forskolin 5 μM, 1 h
  IC50: 10.3 nM
[15]
  β-arrestin1 recruitment to α2A-AR: negligible recruitment
[16]
  affinity for β1-AR, lower compared with D2R: ~120 fold
[17]
  β-arrestin1 recruitment to D2R: negligible recruitment
[18]; KO versus unmodified cells
  loss of potency in decreasing cAMP by α2-AR KO: ~120 fold
[18]; read-out: IC50, inhibition of cAMP production, α2A-AR KO
  IC50: 1200 nM
[18]; α2A-AR KO, normalized to DA's efficacy in parental INS-1E
  Emax, inhibition of cAMP production: 56.28 [5.32–107.26] % DA

## NC[C@H](O)c1ccc(O)c(O)c1 [NE, norepinephrine]
[1]; [20]
  EC50: 25.3 nM
[1]; [21]
  EC50: 32600 nM
[1]; [22]
  EC50: 3350 nM
[1]; EC50, GαoB recruitment to D2R, GαoB
  EC50: 139 nM
[19]
  pEC50, β-arrestin2 recruitment to D2R: 4.78 (16745.32) [3.62–5.93]
[15]
  β-arrestin1 recruitment to α2A-AR: negligible recruitment
[17]
  β-arrestin1 recruitment to D2R: negligible recruitment

Source: article PMC9379584 (iScience, 2022)
